Results reported in patent US9139523B2, “5-HT2B receptor antagonists” (Janssen Pharmaceutica, NV, priority 2010, dated 2015).

Experiments:
5HT2B = 5HT2B (Homo sapiens, UniProt P41595); assay: 5-HT2B antagonism, FLIPR intracellular calcium in transfected CHO-K1 cells; assay type: cell-based; parameters: expressed in transfected cells; host or cells: CHO-K1 (ECACC); settings: for IC50: CHO-K1 cells, response to 0.1 nM serotonin, Fluo-3 FLIPR; for Kb: modified Cheng Prusoff equation from IC50, read-out: 5-HT2B antagonism KB (apparent dissociation constant)
Procedure: CHO-K1 (ECACC) cells were stably transfected with human 5-HT2B receptor cDNA subcloned into pCDNA3.1 using the calcium phosphate method. Stably transfected cell lines were selected using G-418, and clonal cell lines were developed by limit dilution. Cell lines were cultured in Dulbecco's modified Eagle Medium (DMEM) containing 10% heat inactivated dialyzed foetal bovine serum (FBS), 1% penicillin-streptomycin, 1% L-glutamine and 1% non-essential amino acids.
Confluent monolayers plated into black 96 well plates with clear bottoms were loaded with 4 μM Fluo-3-AM for 90 min at 37° C. in Hanks balanced salt solution supplemented with 20 mM HEPES and 2.5 mM probenecid. After washing, the test compound was added to the cells and maximal fluorescence in response to 0.1 nM serotonin was recorded using a fluorometric imaging plate reader (FLIPR) to detect changes in intracellular calcium levels.
The maximal fluorescence recorded in the presence of the test compound was expressed as a percent of the maximal fluorescence response to the agonist serotonin (0.1 nM). […] The apparent dissociation constant (KB) was calculated using the modified Cheng Prusoff equation (KB=IC50/(1+(A/EC50A)), where A=concentration of serotonin, and EC50A=EC50 value of serotonin in this assay). (Porter et al. (1999), Br. J. Pharmacol., 128: 13-20)

D2L = target: T1, D2L (Homo sapiens, UniProt P14416); assay: Competitive radioligand binding, D2L; settings: CHO membranes, 3H-spiperone 0.2 nM; for IC50: read-out: pIC50 D2L (converted)
T1 construct: expressed in transfected cells; host or cells: CHO (membrane fraction)
Procedure: Competitive radioligand binding assays were used to determine the affinity of the test compounds for a particular receptor. Various concentrations of the non-labelled test compound were added to the incubation mixture with the membrane fraction, containing the receptor of interest, and a fixed low concentration (nM) of the radioligand. During the incubation the radioligand bound to the receptor, but this was inhibited by the non-labelled test compound in proportion to its binding affinity and concentration.
Cell lines were established that stably express the human variant of the receptor under investigation after transfection with the appropriate cDNA (Table 1). Transfected cells were grown under standard culture conditions, and membrane fractions were obtained upon centrifugation and homogenisation of the cells. Optimal membrane dilutions for binding studies were determined and aliquots were stored at −70° C. until use. In a 96-well plate format, the appropriate radioligand was added to the membrane preparation containing the receptor under investigation. Compound solutions were prepared in DMSO, and diluted 100-fold into the multiwell plate to a final test concentration of 10^−9 to 10^−5 M. After incubation with the test compound, the unbound radioligand was removed by filtration on G/F filters with a Filtermate 96. Microscint™ was added to the washed filter plates and the radioactivity bound to the receptor was measured by liquid scintillation counting in a TopCount (Packard). To measure the Non-Specific Binding (NSB), a high concentration of the non-radiolabeled ligand was added to wells containing the membrane fraction and the radioligand.
Using in house developed software, a best-fit curve was fitted by a minimum sum of squares method to the plot of % inhibition vs. concentration of the test compound. From this, the pIC50 value (inhibitory concentration causing 50% displacement of specific binding) was determined, as well as an estimate of the slope of the plot (Hill coefficient).

hERG potassium channel = target: T2, hERG potassium channel (Homo sapiens, UniProt Q12809); assay: hERG-transfected HEK293 cells using a Patch Express apparatus; assay type: cell-based; settings: bracketed value in cell = % block by vehicle
T2 construct: expressed in transfected cells; host or cells: HEK293
Procedure: Experiments were performed using HEK293 cells stably expressing the hERG potassium channel. Cells were grown at 37° C. and 5% CO2 in culture flasks in MEM Medium supplemented with 10% heat-inactivated fetal bovine serum, 1% L-Glutamine-Penicillin-Streptomycin-solution, 1% non-essential amino acids (100×), 1% sodium pyruvate (100 mM) and 0.8% Geneticin (50 mg/ml). Before use the cells were subcultured in MEM medium in the absence of 5 ml L-Glutamine-Penicillin-Streptomycin. For use in the automated patch-clamp system PatchXpress 7000A (Axon Instruments) cells were harvested to obtain cell suspension of single cells. Extracellular solution contained (mM): 150 NaCl, 4 KCl, 1 MgCl2, 1.8 CaCl2, 10 HEPES, 5 Glucose (pH 7.4 with NaOH). Pipette solution contained (mM): 120 KCl, 10 HEPES, 5 EGTA, 4 ATP-Mg2, 2 MgCl2, 0.5 CaCl2 (pH 7.2 with KOH).
Patch-clamp experiments were performed in the voltage-clamp mode and whole-cell currents were recorded with an automated patch-clamp assay utilizing the PatchXpress 7000A system (Axon Instruments). Current signals were amplified and digitized by a Multiclamp amplifier, stored and analyzed by using the PatchXpress, DataXpress software and Igor 5.0 (Wavemetrics).
The holding potential was −80 mV. The hERG current (K+-selective outward current) was determined as the maximal tail current at −40 mV after a 2 second depolarization to +60 mV. Pulse cycling rate was 15 s. Before each test pulse a short pulse (0.5 s) from the holding potential to −60 mV was given to determine (linear) leak current. After establishing whole-cell configuration and a stability period, the vehicle (aqueous DMSO control) was applied for 5 minutes followed by the test substance by increasing concentrations of 10^−7 M, 3×10^−7 M and 3×10^−6 M.
Each concentration of the test substance was applied twice. The effect of each concentration was determined after 5 min as an average current of 3 sequential voltage pulses. To determine the extent of block the residual current was compared with vehicle pre-treatment. Data are expressed as % block at the indicated concentrations in Table 4. The values between brackets refer to % block by the vehicle.

Sequence of 5HT2B (P41595 whole entry): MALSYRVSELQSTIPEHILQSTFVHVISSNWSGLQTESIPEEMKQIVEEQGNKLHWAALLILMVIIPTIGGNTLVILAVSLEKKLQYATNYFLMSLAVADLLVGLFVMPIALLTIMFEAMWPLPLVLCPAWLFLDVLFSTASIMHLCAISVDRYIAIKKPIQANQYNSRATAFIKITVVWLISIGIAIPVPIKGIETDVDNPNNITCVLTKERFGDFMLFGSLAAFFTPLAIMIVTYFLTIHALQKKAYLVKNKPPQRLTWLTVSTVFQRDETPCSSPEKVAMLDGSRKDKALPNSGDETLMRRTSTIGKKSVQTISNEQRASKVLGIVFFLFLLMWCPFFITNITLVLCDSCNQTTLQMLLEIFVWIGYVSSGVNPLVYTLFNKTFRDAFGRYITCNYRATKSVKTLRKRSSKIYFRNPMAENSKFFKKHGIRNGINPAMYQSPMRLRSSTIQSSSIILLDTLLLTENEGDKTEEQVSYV
T2 sequence (Q12809 whole entry): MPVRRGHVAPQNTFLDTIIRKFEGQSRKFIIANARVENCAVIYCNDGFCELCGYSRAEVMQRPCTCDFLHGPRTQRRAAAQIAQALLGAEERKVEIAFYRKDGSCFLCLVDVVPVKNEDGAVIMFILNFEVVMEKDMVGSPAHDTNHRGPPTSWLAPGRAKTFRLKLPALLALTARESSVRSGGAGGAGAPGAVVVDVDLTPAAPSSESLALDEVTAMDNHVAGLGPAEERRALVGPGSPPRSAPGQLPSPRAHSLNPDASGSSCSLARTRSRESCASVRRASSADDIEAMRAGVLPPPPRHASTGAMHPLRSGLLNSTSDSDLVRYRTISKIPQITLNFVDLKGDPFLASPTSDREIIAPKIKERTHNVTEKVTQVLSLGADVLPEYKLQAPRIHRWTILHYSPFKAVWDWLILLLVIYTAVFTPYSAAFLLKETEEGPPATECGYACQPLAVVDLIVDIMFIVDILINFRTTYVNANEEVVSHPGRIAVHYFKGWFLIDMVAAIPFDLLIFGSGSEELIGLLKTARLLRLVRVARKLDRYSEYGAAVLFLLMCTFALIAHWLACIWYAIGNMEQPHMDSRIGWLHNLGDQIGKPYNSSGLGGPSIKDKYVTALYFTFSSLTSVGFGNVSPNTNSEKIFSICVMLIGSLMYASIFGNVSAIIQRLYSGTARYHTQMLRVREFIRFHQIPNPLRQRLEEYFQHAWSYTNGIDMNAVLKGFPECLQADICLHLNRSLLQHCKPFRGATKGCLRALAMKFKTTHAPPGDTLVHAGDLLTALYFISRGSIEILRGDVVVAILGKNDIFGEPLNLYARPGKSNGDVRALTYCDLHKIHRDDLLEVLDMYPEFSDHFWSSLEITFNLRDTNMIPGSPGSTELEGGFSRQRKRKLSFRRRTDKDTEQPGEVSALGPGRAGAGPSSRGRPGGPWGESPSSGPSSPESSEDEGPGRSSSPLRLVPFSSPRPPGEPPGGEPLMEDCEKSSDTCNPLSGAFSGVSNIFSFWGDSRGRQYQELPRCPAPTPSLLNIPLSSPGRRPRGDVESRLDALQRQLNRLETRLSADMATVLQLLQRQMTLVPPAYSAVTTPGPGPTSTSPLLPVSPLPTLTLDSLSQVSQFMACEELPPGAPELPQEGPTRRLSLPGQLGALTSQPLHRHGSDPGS
T1 sequence (P14416 whole entry): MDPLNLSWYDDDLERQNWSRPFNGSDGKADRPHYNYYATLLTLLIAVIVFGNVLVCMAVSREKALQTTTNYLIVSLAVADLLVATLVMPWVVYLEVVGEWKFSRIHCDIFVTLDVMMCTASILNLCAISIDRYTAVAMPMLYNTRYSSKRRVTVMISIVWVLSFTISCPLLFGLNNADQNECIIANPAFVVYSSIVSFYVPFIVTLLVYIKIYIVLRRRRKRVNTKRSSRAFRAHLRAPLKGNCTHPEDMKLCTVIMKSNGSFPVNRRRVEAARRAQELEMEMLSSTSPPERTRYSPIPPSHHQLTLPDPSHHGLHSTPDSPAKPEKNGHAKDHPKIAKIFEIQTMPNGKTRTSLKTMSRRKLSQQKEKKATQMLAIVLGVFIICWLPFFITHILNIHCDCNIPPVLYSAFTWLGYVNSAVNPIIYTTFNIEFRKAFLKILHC

Structure (SMILES) | IC50 (5HT2B) | Kb (5HT2B) | IC50 (D2L) | % block of the hERG channel (hERG potassium channel; 100 nM) | % block of the hERG channel (hERG potassium channel; 300 nM) | % block of the hERG channel (hERG potassium channel; 3000 nM) | pIC50 D2L (D2L)
COc1cc(N)c(Cl)cc1C(=O)N[C@@H]1CCN(CCCOc2ccc(F)cc2)C[C@H]1F (racemic) [(±)-7, trans-4-amino-5-chloro-N-{3-fluoro-1-[3-(4-fluorophenoxy)-propyl]-piperidin-4-yl}-2-methoxybenzamide] | 60 nM | 20 nM | 4570 nM | 35 (7) % | 62 (15) % | 94 (21) % | 
COc1cc(N)c(Cl)cc1C(=O)N[C@H]1CCN(CCCOc2ccc(F)cc2)C[C@H]1F (racemic) [(±)-12, cis-4-amino-5-chloro-N-{3-fluoro-1-[3-(4-fluorophenoxy)-propyl]-piperidin-4-yl}-2-methoxybenzamide] | 12 nM | 4.2 nM | 4680 nM | 40 (7) % | 73 (15) % | 96 (21) % | 
COc1cc(N)c(Cl)cc1C(=O)NC1CCN(CCCOc2ccc(F)cc2)CC1(F)F (racemic) [(±)-17, 4-amino-5-chloro-N-{3,3-difluoro-1-[3-(4-fluorophenoxy)-propyl]-piperidin-4-yl}-2-methoxybenzamide] |  |  | 10500 nM | 9 (7) % | 17 (15) % | 58 (21) % | 
COc1cc(N)c(Cl)cc1C(=O)N[C@@H]1CCN(CCCOc2ccc(F)cc2)C[C@H]1F (single isomer, unassigned) [(+)-7, trans-4-amino-5-chloro-N-{3-fluoro-1-[3-(4-fluorophenoxy)-propyl]-piperidin-4-yl}-2-methoxybenzamide] |  |  | 2750 nM |  |  |  | 
COc1cc(N)c(Cl)cc1C(=O)N[C@H]1CCN(CCCOc2ccc(F)cc2)C[C@H]1F (single isomer, unassigned) [(+)-12, cis-4-amino-5-chloro-N-{3-fluoro-1-[3-(4-fluorophenoxy)-propyl]-piperidin-4-yl}-2-methoxybenzamide] |  |  |  |  |  |  | 5.32
COc1cc(N)c(Cl)cc1C(=O)N[C@@H]1CCN(CCCOc2ccc(F)cc2)C[C@H]1F (single isomer, unassigned) [(−)-7, trans-4-amino-5-chloro-N-{3-fluoro-1-[3-(4-fluorophenoxy)-propyl]-piperidin-4-yl}-2-methoxybenzamide] |  |  | 7940 nM |  |  |  | 
COc1cc(N)c(Cl)cc1C(=O)N[C@H]1CCN(CCCOc2ccc(F)cc2)C[C@H]1F (single isomer, unassigned) [(−)-12, cis-4-amino-5-chloro-N-{3-fluoro-1-[3-(4-fluorophenoxy)-propyl]-piperidin-4-yl}-2-methoxybenzamide] |  |  | 4790 nM |  |  |  | 
COc1cc(N)c(Cl)cc1C(=O)NC1CCN(CCCOc2ccc(F)cc2)CC1(F)F (single isomer, unassigned) [Compound (−)-17, 4-amino-5-chloro-N-{3,3-difluoro-1-[3-(4-fluorophenoxy)-propyl]-piperidin-4-yl}-2-methoxybenzamide] | 1.6 nM | 0.55 nM |  | 3 (7) % | 11 (10) % | 47 (11) % | <5
COc1cc(N)c(Cl)cc1C(=O)NC1CCN(CCCOc2ccc(F)cc2)CC1(F)F (single isomer, unassigned; (+)) [(+)-17, 4-amino-5-chloro-N-{3,3-difluoro-1-[3-(4-fluorophenoxy)-propyl]-piperidin-4-yl}-2-methoxybenzamide] | 33 nM | 11 nM | > 10000 nM | 14 (7) % | 21 (10) % | 52 (11) % | 
